Consider 2 compounds from ChEMBL document CHEMBL1130055, “Discovery of a novel class of selective non-peptide antagonists for the human neurokinin-3 receptor. 1. Identification of the 4-quinolinecarboxamide framework” (J Med Chem, 1997).

The target in this assay is T1, Substance-K receptor (Homo sapiens, UniProt P21452).
T1 sequence (P21452 whole entry): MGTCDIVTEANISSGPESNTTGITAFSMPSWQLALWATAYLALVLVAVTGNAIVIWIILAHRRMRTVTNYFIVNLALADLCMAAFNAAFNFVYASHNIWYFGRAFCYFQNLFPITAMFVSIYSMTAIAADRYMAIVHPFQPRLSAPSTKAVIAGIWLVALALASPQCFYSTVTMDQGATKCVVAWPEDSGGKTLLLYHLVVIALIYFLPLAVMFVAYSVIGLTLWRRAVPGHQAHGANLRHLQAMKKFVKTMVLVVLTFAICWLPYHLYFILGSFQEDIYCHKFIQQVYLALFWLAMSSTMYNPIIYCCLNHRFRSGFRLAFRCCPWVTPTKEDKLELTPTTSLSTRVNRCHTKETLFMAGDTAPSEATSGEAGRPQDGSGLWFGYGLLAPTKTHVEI
Description: Inhibition of [125I]neurokinin A (NKA) binding in human Tachykinin receptor 2 of chinese hamster ovary (hNK-2-CHO) cell membranes.

The Ki is a measure of affinity in units of concentration, obtained from inhibition or displacement. A higher Ki goes with a looser hold on the target.

For the compound `COC(=O)[C@@H](NC(=O)c1cc(-c2ccccc2)nc2ccccc12)c1ccccc1`, the inhibition constant Ki stood at 8.33 µM.
The compound `COC(=O)[C@H](NC(=O)c1cc(-c2ccccc2)nc2ccccc12)c1ccccc1` came in with a Ki of 1.22 µM.
